Patent US20250144067A1, “PERSONALIZED STARVATION THERAPY FOR CANCER” (Faeth Therapeutics, Inc., priority 2021, published 2025)
Counter-ions that a name gives are not always drawn.

Assays:
[1] = tested on: NCI-H292 lung cancer cells; assay: FDA drug screening, complete media vs cholesterol-free media without statin (TABLE 1); assay type: cell-based, human
[2] = tested on: NCI-H292 lung cancer cells; assay: FDA drug screening, complete media vs cholesterol-free media with simvastatin (TABLE 2); assay type: cell-based, human; settings: for Cholesterol-free media + simvastatin (0.04 μM) / Complete Media: NCI-H292 cells
[3] = Complete minus Cholesterol-free, >0 enhanced anti-cancer activity, about 0 neutral, <0 antagonist
[4] = NCI-H292 cells, cholesterol-free media without statin
[5] = cholesterol-free media with simvastatin 0.04 μM, FDA drug library screen (TABLE 2)
[6] = complete media, FDA drug library screen (TABLE 2)
[7] = complete media minus cholesterol-free media + simvastatin (0.04 μM), >0 enhanced anti-cancer activity, about 0 neutral, <0 antagonist
[8] = cholesterol-free media with simvastatin 0.04 μM, cell growth value in FDA drug screen
[9] = complete media, cell growth value in FDA drug screen
[10] = complete media minus cholesterol-free media + simvastatin, >0 enhanced anti-cancer activity, about 0 neutral, <0 antagonist
[11] = FDA library drug in cholesterol-free media with simvastatin 0.04 μM
[12] = FDA library drug in complete media
[13] = complete media vs cholesterol-free media + simvastatin (0.04 μM), […]
[14] = Complete minus Cholesterol-free, greater than 0 enhanced anti-cancer activity, about 0 neutral, below 0 antagonists
[15] = NCI-H292 cells in cholesterol-free media without statin
[16] = NCI-H292 cells in complete media
[17] = NCI-H292 cells, cholesterol-free media without statin, FDA drug library screen
[18] = NCI-H292 cells, complete media, FDA drug library screen
[19] = complete vs cholesterol-free media, >0 enhanced anti-cancer activity, about 0 neutral, <0 antagonist
[20] = drug in cholesterol-free media with simvastatin 0.04 μM
[21] = complete media vs cholesterol-free media + simvastatin (0.04 μM), >0 enhanced anti-cancer activity, about 0 neutral, <0 antagonist
[22] = FDA drug library screen, cholesterol-free media with simvastatin 0.04 μM
[23] = FDA drug library screen, complete media

## C[C@]1(COc2ccc(N3CCC(Oc4ccc(OC(F)(F)F)cc4)CC3)cc2)Cn2cc([N+](=O)[O-])nc2O1 [Delamanid]
[1]; [3]
  Difference: −0.22
[1]; [4]
  Cholesterol-free: 1.106
[1]; NCI-H292 cells, complete media
  Complete: 0.8827
[2]; [5]
  Cholesterol-free media + simvastatin (0.04 μM): 1.352
[2]; [6]
  Complete Media: 1.345
[2]; [7]
  Difference: −0.01

## CCOC(=O)[C@H](CCc1ccccc1)N[C@@H](C)C(=O)N(CC(=O)O)C1Cc2ccccc2C1 [Delapril (hydrochloride)]
[1]; [3]
  Difference: −0.30
[1]; [4]
  Cholesterol-free: 1.222
[1]; NCI-H292 cells, complete media
  Complete: 0.9182
[2]; [8]
  Cholesterol-free media + simvastatin (0.04 μM): 0.7815
[2]; [9]
  Complete Media: 0.8772
[2]; [10]
  Difference: 0.10

## CN(CCCCCCCCCCN(C)C(=O)Oc1cccc([N+](C)(C)C)c1)C(=O)Oc1cccc([N+](C)(C)C)c1 [Demecarium Bromide]
[1]; Complete minus Cholesterol-free, […]
  Difference: −0.29
[1]; [4]
  Cholesterol-free: 1.112
[1]; NCI-H292 cells, complete media
  Complete: 0.8186
[2]; [11]
  Cholesterol-free media + simvastatin (0.04 μM): 1.197
[2]; [12]
  Complete Media: 0.9059
[2]; [13]
  Difference: −0.29

## CN(C)[C@@H]1C(O)=C(C(N)=O)C(=O)[C@@]2(O)C(O)=C3C(=O)c4c(O)ccc(Cl)c4[C@@H](O)[C@H]3C[C@@H]12 [Demeclocycline (hydrochloride)]
[1]; [14]
  Difference: −0.59
[1]; [15]
  Cholesterol-free: 1.527
[1]; [16]
  Complete: 0.9395
[2]; [5]
  Cholesterol-free media + simvastatin (0.04 μM): 1.054
[2]; [6]
  Complete Media: 1.04
[2]; [7]
  Difference: −0.01

## C[C@H](CCC(=O)O)[C@H]1CC[C@H]2[C@@H]3CC[C@@H]4C[C@H](O)CC[C@]4(C)[C@H]3C[C@H](O)[C@]12C [Deoxycholic acid sodium salt]
[1]; [17]
  Cholesterol-free: 0.8045
[1]; [18]
  Complete: 0.9543
[1]; [19]
  Difference: 0.15
[2]; [20]
  Cholesterol-free media + simvastatin (0.04 μM): 0.8739
[2]; drug in complete media
  Complete Media: 0.7063
[2]; [21]
  Difference: −0.17

## C[C@H](CCC(=O)O)[C@H]1CC[C@H]2[C@@H]3CC[C@@H]4C[C@H](O)CC[C@]4(C)[C@H]3C[C@H](O)[C@]12C [Deoxycholic acid]
[1]; [14]
  Difference: −0.65
[1]; [15]
  Cholesterol-free: 1.683
[1]; [16]
  Complete: 1.028
[2]; [11]
  Cholesterol-free media + simvastatin (0.04 μM): 1.379
[2]; [12]
  Complete Media: 0.931
[2]; [21]
  Difference: −0.45

## CC(=O)OCC(=O)[C@H]1CC[C@H]2[C@@H]3CCC4=CC(=O)CC[C@]4(C)[C@H]3CC[C@]12C [Deoxycorticosterone acetate]
[1]; [17]
  Cholesterol-free: 0.7412
[1]; [18]
  Complete: 1.214
[1]; [19]
  Difference: 0.47
[2]; [22]
  Cholesterol-free media + simvastatin (0.04 μM): 0.9825
[2]; [23]
  Complete Media: 0.8887
[2]; [21]
  Difference: −0.09

## CCC(=O)O[C@]1(C(C)=O)CC[C@H]2[C@@H]3CCC4=CC(=O)C=C[C@]4(C)[C@H]3[C@@H](O)C[C@@]21C [Deprodone propionate]
[1]; [17]
  Cholesterol-free: 0.6965
[1]; [18]
  Complete: 0.786
[1]; [19]
  Difference: 0.09
[2]; [8]
  Cholesterol-free media + simvastatin (0.04 μM): 0.6417
[2]; [9]
  Complete Media: 0.6907
[2]; [10]
  Difference: 0.05

## COc1ccc(-c2cc(C(F)F)nn2-c2ccc(S(N)(=O)=O)cc2)cc1F [Deracoxib]
[1]; [14]
  Difference: −0.50
[1]; [15]
  Cholesterol-free: 1.682
[1]; [16]
  Complete: 1.181
[2]; [22]
  Cholesterol-free media + simvastatin (0.04 μM): 1.651
[2]; [23]
  Complete Media: 1.821
[2]; [10]
  Difference: 0.17

## COC(=O)[C@H]1[C@H]2C[C@@H]3c4[nH]c5ccccc5c4CCN3C[C@H]2C[C@@H](OC(=O)c2cc(OC)c(OC)c(OC)c2)[C@@H]1OC [Deserpidine]
[1]; [3]
  Difference: −0.30
[1]; [4]
  Cholesterol-free: 0.9648
[1]; NCI-H292 cells, complete media
  Complete: 0.6619
[2]; [20]
  Cholesterol-free media + simvastatin (0.04 μM): 1.05
[2]; drug in complete media
  Complete Media: 0.8141
[2]; [21]
  Difference: −0.24

## CC(C)N(CC[C@H](c1ccccc1)c1cc(CO)ccc1O)C(C)C [Desfesoterodine]
[1]; [17]
  Cholesterol-free: 0.7501
[1]; [18]
  Complete: 1.3
[1]; complete vs cholesterol-free media, […]
  Difference: 0.55
[2]; [20]
  Cholesterol-free media + simvastatin (0.04 μM): 1.01
[2]; drug in complete media
  Complete Media: 0.8395
[2]; [13]
  Difference: −0.17

## CNCCCN1c2ccccc2CCc2ccccc21 [Desipramine hydrochloride]
[1]; [3]
  Difference: −0.04
[1]; [17]
  Cholesterol-free: 1.05
[1]; [18]
  Complete: 1.006
[2]; [11]
  Cholesterol-free media + simvastatin (0.04 μM): 2.126
[2]; [12]
  Complete Media: 1.494
[2]; [21]
  Difference: −0.63
